Where two headings read alike, the source gives them in different places.
Columns and labels:
[1] = system: HCT116 MTAP WT cells; experiment: Proliferation inhibition of HCT116 cells in vitro (CellTiter Glo); format: cell-based; settings: 6 days, 9 concentrations starting from 30 μM, read-out: Cell proliferation inhibition rate HCT116 MTAP WT IC50 (nm)
Text: (§1) Biological Test Example 2 Proliferation Inhibition of HCT116 and HCT116 MTAP-KO Cells in Vitro
(§2) HCT116 cell line was purchased from the Chinese Academy of Sciences Cell Bank, and the MTAP gene was knocked out by CRISPR/Cas9 technology to obtain HCT116-MTAP-KO cell line.
(§3) McCoy's 5A medium (Gibco, catalog No. 16600082), fetal bovine serum (Gibco, catalog No. 10099141C), penicillin-streptomycin double antibody (Gibco, catalog No. 15140122), pancreatic enzyme (Gibco, catalog No. 25200056), CellTiter Glo assay kit (Promega, catalog No. G7572), 384-well transparent flat-bottomed black walled cell culture plate (Corning, catalog No. 3764), ultra micro sampler (Tecan, catalog No.D300e), Multimode reader (Biotek, catalog No. SynergyHTX)
(§4) 1. Cell culture: HCT116 and HCT116-MTAP-KO cells were cultured in McCoy'5A medium+10% fetal bovine serum+1% penicillin-streptomycin double antibody; to ensure that they were always in the logarithmic growth phase and the cell viability greater than 95%.
(§5) 2. Compound concentration gradient preparation: The compound to be tested was added to a 384-well plate using an ultra micro sampler, starting from 30 μM (HCT116 cells) or 3 μM (HCT116-MTAP-KO cells), and diluted with DMSO at 3 times for a total of 9 concentrations and set up three duplicate wells.
(§6) 3. Treatment of cells with compounds: Trypsin-digested HCT116 or HCT116-MTAP-KO cell suspension was added to the 384-well plates spotted with the compounds to be tested at 40 μL per well, i.e., 100 cells per well, and the final concentration of DMSO was 0.4%. The cell culture plate was incubated at 37° C. in a 5% CO2 incubator for 6 days.
(§7) 4. Detection: 20 μL of CellTiter Glo reagent was added to each well of the cell culture plate and incubated at room temperature for 30 minutes. A multimode reader was used to detect the luminescence signal at […].
(§8) The data was fitted with GraphPad Prism 8.0 software using a four parameter inhibitor-reaction model to obtain the IC50 value (half inhibitory concentration) of the test compounds.

[2] = system: HCT116-MTAP-KO cells (HCT116 MTAP null); experiment: Proliferation inhibition of HCT116 MTAP-KO cells in vitro (CellTiter Glo); format: cell-based; settings: 6 days, 9 concentrations starting from 3 μM, read-out: Cell proliferation inhibition rate HCT116 MTAP null IC50 (nm)
Text: as §1, §2, §3, §4, §5, §6, §7, §8

Row | Structure (SMILES) | IC50 ([1]; Homo sapiens, HCT-116, 144 h) | IC50 ([2]; HCT116-MTAP null, 144 h) | IC50 [1] | IC50 [2]
1 | Cc1ncc2c(N)nc3cc(F)c(C(=O)N(Cc4ccc(C(F)(F)F)cn4)c4ccn(CCO)n4)cc3n12 [Example 117] | 1000 to 10000 nM | 100 to 1000 nM |  | 
2 | Cc1c(N(Cc2ccc(C(F)(F)F)cn2)C(=O)c2cc3c(cc2F)nc(N)c2cnc(C)n23)cnn1C [Example 118] | 1000 to 10000 nM | < 100 nM |  | 
3 | Cc1ncc2c(N)nc3cc(F)c(C(=O)N(Cc4ccc(C(F)(F)F)nn4)c4cnn(C)c4)cc3n12 [Example 119] | 1000 to 10000 nM | 100 to 1000 nM |  | 
4 | Cc1ncc2c(N)nc3cc(F)c(C(=O)N(Cc4ncc(C(F)(F)F)cc4F)c4cnn(C)c4)cc3n12 [Example 120] | 1000 to 10000 nM | < 100 nM |  | 
5 | Cc1ncn2c1c(N)nc1cc(F)c(C(=O)N(c3cnn(C)c3)C3COc4ccccc43)cc12 (stereo not drawn) [Example 121] |  |  | 1000 to 10000 nM | < 100 nM
6 | COc1cc(N(Cc2ccc(C(F)(F)F)cn2)C(=O)c2cc3c(cc2F)nc(N)c2cnc(C)n23)nn1C [Example 122] | 1000 to 10000 nM | 100 to 1000 nM |  | 
7 | COc1ccc(N(Cc2ccc(C(F)(F)F)cn2)C(=O)c2cc3c(cc2F)nc(N)c2cnc(C)n23)cn1 [Example 124] | 1000 to 10000 nM | < 100 nM |  | 
8 | Cc1ncc2c(N)nc3cc(F)c(C(=O)N(c4cnn(C)c4)C4COc5ccccc54)cc3n12 (stereo not drawn) [Example 125] |  |  | 1000 to 10000 nM | < 100 nM
9 | Cc1nn(C)cc1N(Cc1ccc(C(F)(F)F)nn1)C(=O)c1cc2c(cc1F)nc(N)c1cnc(C)n12 [Example 127] | 1000 to 10000 nM | 100 to 1000 nM |  | 
10 | CCn1cc(N(Cc2ccc(C(F)(F)F)cn2)C(=O)c2cc3c(cc2F)nc(N)c2cnc(C)n23)c(C)n1 [Example 129] | 1000 to 10000 nM | < 100 nM |  | 
11 | COc1ccc(CN(C(=O)c2cc3c(cc2F)nc(N)c2cnc(C)n23)c2cn(C)nc2C)nn1 [Example 131] | 1000 to 10000 nM | < 100 nM |  | 
12 | Cc1ncc2c(N)nc3cc(F)c(C(=O)N(Cc4ccc(C(F)(F)F)cn4)c4cn(C)nc4CO)cc3n12 [Example 133] | 1000 to 10000 nM | 100 to 1000 nM |  | 
13 | Cc1nn(C)cc1N(Cc1ccc(C(F)(F)F)cn1)C(=O)c1cc2c(cc1F)nc(N)c1c(C)ncn12 [Example 134] | < 100 nM | < 100 nM |  | 
14 | CCOc1ccc(CN(C(=O)c2cc3c(cc2F)nc(N)c2cnc(C)n23)c2cn(C)nc2C)nc1 [Example 136] | 1000 to 10000 nM | < 100 nM |  | 
15 | COc1nn(C)cc1N(Cc1ccc(C(F)(F)F)cn1)C(=O)c1cc2c(cc1F)nc(N)c1cnc(C)n12 [Example 138] | 1000 to 10000 nM | < 100 nM |  | 
16 | Cc1ccc(N(Cc2ccc(C(F)(F)F)cn2)C(=O)c2cc3c(cc2F)nc(N)c2cnc(C)n23)cn1 [Example 139] | 1000 to 10000 nM | < 100 nM |  | 
17 | Cc1nn(C)cc1N(Cc1ncc(C(F)(F)F)cn1)C(=O)c1cc2c(cc1F)nc(N)c1cnc(C)n12 [Example 140] | 1000 to 10000 nM | 100 to 1000 nM |  | 
18 | Cc1ncccc1N(Cc1ccc(C(F)(F)F)cn1)C(=O)c1cc2c(cc1F)nc(N)c1cnc(C)n12 [Example 143, 4-Amino-7-fluoro-1-methyl-N-(2-methylpyridin-3-yl)-N-(5-(trifluoromethyl)pyridin-2-ylmethyl)imidazolo[1,5-a]quinoxalin-8-carboxamide] | 100 to 1000 nM | < 100 nM |  | 
19 | Cc1nn(C)cc1N(Cc1ccc(OC2CC2)cn1)C(=O)c1cc2c(cc1F)nc(N)c1cnc(C)n12 [Example 144] | 1000 to 10000 nM | < 100 nM |  | 
20 | COc1ncccc1N(Cc1ccc(C(F)(F)F)cn1)C(=O)c1cc2c(cc1F)nc(N)c1cnc(C)n12 [Example 145] | 100 to 1000 nM | < 100 nM |  | 
21 | COc1ccc(N(Cc2ccc(OC3CC3)cn2)C(=O)c2cc3c(cc2F)nc(N)c2cnc(C)n23)cn1 [Example 146] | 1000 to 10000 nM | < 100 nM |  | 

Row | Structure (SMILES) | IC50 ([1]; Homo sapiens, HCT-116, 144 h) | IC50 ([2]; HCT116-MTAP null, 144 h) | IC50 [1] | IC50 [2]
22 | COc1ncc(N(Cc2ccc(C(F)(F)F)cn2)C(=O)c2cc3c(cc2F)nc(N)c2cnc(C)n23)cn1 [Example 148] | 1000 to 10000 nM | 100 to 1000 nM |  | 
23 | Cc1ncc2c(N)nc3cc(F)c(C(=O)N(Cc4ccc(C(F)(F)F)cn4)C4CCOCC4)cc3n12 [Example 149] | 1000 to 10000 nM | 100 to 1000 nM |  | 
24 | CCn1cc(N(Cc2ccc(C(F)(F)F)cn2)C(=O)c2cc3c(cc2F)nc(N)c2c(C)ncn23)c(C)n1 [Example 150] | 100 to 1000 nM | < 100 nM |  | 
25 | Cc1[nH]ncc1N(Cc1ccc(C(F)(F)F)cn1)C(=O)c1cc2c(cc1F)nc(N)c1cnc(C)n12 [Example 151] | 1000 to 10000 nM | 100 to 1000 nM |  | 
26 | COCCOc1ccc(CN(C(=O)c2cc3c(cc2F)nc(N)c2cnc(C)n23)c2cn(C)nc2C)nc1 [Example 152] | 1000 to 10000 nM | 100 to 1000 nM |  | 
27 | Cc1ncn2c1c(N)nc1cc(F)c(C(=O)N3[C@H](C)COC[C@@H]3c3ccc(C(F)(F)F)cn3)cc12 [Example 153] | 100 to 1000 nM | < 100 nM |  | 
28 | Cc1ncn2c1c(N)nc1cc(F)c(C(=O)N3C(C)COCC3c3ccc(C(F)(F)F)cn3)cc12 (stereo not drawn) [Example 155] |  |  | 1000 to 10000 nM | < 100 nM
29 | Cc1ncc2c(N)nc3cc(F)c(C(=O)N(Cc4ccc(C(F)(F)F)cn4)C4CCOC4)cc3n12 (stereo not drawn) [Example 156] | 1000 to 10000 nM | 100 to 1000 nM |  | 
30 | Cc1nn(C)cc1N(Cc1ccc(OC(F)(F)F)cn1)C(=O)c1cc2c(cc1F)nc(N)c1cnc(C)n12 [Example 157] | 1000 to 10000 nM | < 100 nM |  | 
31 | Cc1ncc2c(N)nc3cc(F)c(C(=O)N(Cc4ccc(C(F)(F)F)cn4)C4COC4)cc3n12 [Example 158] | 1000 to 10000 nM | 100 to 1000 nM |  | 
32 | Cc1ncc2c(N)nc3cc(F)c(C(=O)N4CCC(c5ccc(C(F)(F)F)cn5)C4)cc3n12 (stereo not drawn) [Example 159] | 1000 to 10000 nM | 100 to 1000 nM |  | 
33 | Cc1nn(C)cc1N(Cc1ccc(OC2CC2)cn1)C(=O)c1cc2c(cc1F)nc(N)c1c(C)ncn12 [Example 161] | < 100 nM | < 100 nM |  | 
34 | Cc1nn(CCO)cc1N(Cc1ccc(C(F)(F)F)cn1)C(=O)c1cc2c(cc1F)nc(N)c1c(C)ncn12 [Example 165] | 1000 to 10000 nM | < 100 nM |  | 
35 | CCOc1ccc(CN(C(=O)c2cc3c(cc2F)nc(N)c2c(C)ncn23)c2cn(C)nc2C)nc1 [Example 168] | < 100 nM | < 100 nM |  | 
36 | CCc1nn(C)cc1N(Cc1ccc(C(F)(F)F)cn1)C(=O)c1cc2c(cc1F)nc(N)c1cnc(C)n12 [Example 169] |  |  | 100 to 1000 nM | < 100 nM
37 | Cc1nn(C)cc1N(Cc1ccc(OC(F)(F)F)cn1)C(=O)c1cc2c(cc1F)nc(N)c1c(C)ncn12 [Example 170] | < 100 nM | < 100 nM |  | 
38 | CCn1cc(N(Cc2ccc(OC3CC3)cn2)C(=O)c2cc3c(cc2F)nc(N)c2cnc(C)n23)c(C)n1 [Example 171] | 1000 to 10000 nM | < 100 nM |  | 
39 | Cc1nn(CC(F)F)cc1N(Cc1ccc(C(F)(F)F)cn1)C(=O)c1cc2c(cc1F)nc(N)c1cnc(C)n12 [Example 173] | 1000 to 10000 nM | < 100 nM |  | 
40 | Cc1ncc2c(N)nc3cc(F)c(C(=O)N(Cc4ccc(C(F)(F)F)cn4)c4cn(C)nc4Cl)cc3n12 [Example 175] | 1000 to 10000 nM | < 100 nM |  | 
41 | Cc1nn(C(C)C)cc1N(Cc1ccc(C(F)(F)F)cn1)C(=O)c1cc2c(cc1F)nc(N)c1cnc(C)n12 [Example 176] | 1000 to 10000 nM | < 100 nM |  | 
42 | CCn1cc(N(Cc2ccc(OC3CC3)cn2)C(=O)c2cc3c(cc2F)nc(N)c2c(C)ncn23)c(C)n1 [Example 177] | 100 to 1000 nM | < 100 nM |  | 

From patent US20250376473A1, “PRMTS INHIBITOR AND USE THEREOF” (Cytosinlab Therapeutics Co., Ltd., priority 2022, published 2025)
